Assay results taken from patent publication US7326699B2, “4-Amino-5-phenyl-7-cyclobutyl-pyrrolo(2,3-d)pyrimidine derivatives” (Novartis AG, priority 2001, dated 2008).

Target: T1, human IGF-IR (Homo sapiens, UniProt P08069)
T1 construct: complete human IGF-IR cDNA: GenBank Acc; No. NM_000875; expressed in transfected cells; host or cells: NIH-3T3 mouse fibroblasts
Assay: cellular "Capture ELISA": IGF-I induced IGF-IR autophosphorylation
Type: cell-based
Details: NIH-3T3 mouse fibroblasts transfected with human IGF-IR cDNA, 90 min compound, 10 ng/ml IGF-I for 10 min
Experimental: In this assay the activity of the compounds of the invention against Insulin-like growth factor I (IGF-I) induced autophosphorylation of the IGF-IGF-IR is determined. The assay is conducted as follows:
The cells which overexpress human IGF-IGF-IR are cultured in Dulbecco's minimal essential (DMEM) medium, containing 10% Fetal Calf Serum (FCS). […] On day 3 the medium is discarded and the cells are incubated for 24 h in minimal medium (DMEM, containing 0.5% FCS). […] The cells are incubated for 90 min in the presence of a compound of formula I. Thereafter the cells are stimulated with 50 μl IGF-I (final concentration of IGF-I in the well=10 ng/ml; IGF-I is obtained from Sigma; Product Code: I3769) and incubated for 10 min at 37° C.
The medium is discarded and the cells are washed twice with PBS/O (=Phosphate-Buffered Saline without CaCl2) and lysed for 15 min on ice with 50 μl/well RIPA-buffer [50 mM Tris.HCl, pH=7.2, 120 mM NaCl, 1 mM EDTA, 6 mM EGTA, 1% NP-40, 20 mM NaF, 1 mM benzamidine, 15 mM sodium pyrophosphate, 1 mM Phenyl methyl sulphonyl fluoride (PMSF) and 0.5 mM Na3VO4] and shaken for 10 min using a 96-well plate shaker (=cellular extracts).
The plates are washed twice with 0.05% (v/v) Tween-20 in Phosphate-Buffered Saline (PBS) and once with nanopure H2O. […] After blocking, the plates are washed once with nanopure H2O.
After incubating the extracts and the secondary antibody for 2 h at 4° C., the extracts are discarded, the plates are washed twice with 0.05% (v/v) Tween-20 in PBS and once with nanopure water.
90 μl/well AP substrate (CDP-Star; obtained from Tropix; Cat. No.: MS100RY) are then added and the plates are incubated for 45 min at RT in the dark, followed by measuring AP activity in a Packard Top Count Microplate Scintillation Counter. The IC50 values for the compounds of formula I are calculated via linear regression analysis using the GraphPad In-stat program (GraphPad Software, USA).
Test for activity against IGF-I induced IGF-IR autophosphorylation using the cellular “Capture ELISA” test
The cellular “Capture ELISA” test is carried out as described above.

T1 sequence (P08069 31-1367): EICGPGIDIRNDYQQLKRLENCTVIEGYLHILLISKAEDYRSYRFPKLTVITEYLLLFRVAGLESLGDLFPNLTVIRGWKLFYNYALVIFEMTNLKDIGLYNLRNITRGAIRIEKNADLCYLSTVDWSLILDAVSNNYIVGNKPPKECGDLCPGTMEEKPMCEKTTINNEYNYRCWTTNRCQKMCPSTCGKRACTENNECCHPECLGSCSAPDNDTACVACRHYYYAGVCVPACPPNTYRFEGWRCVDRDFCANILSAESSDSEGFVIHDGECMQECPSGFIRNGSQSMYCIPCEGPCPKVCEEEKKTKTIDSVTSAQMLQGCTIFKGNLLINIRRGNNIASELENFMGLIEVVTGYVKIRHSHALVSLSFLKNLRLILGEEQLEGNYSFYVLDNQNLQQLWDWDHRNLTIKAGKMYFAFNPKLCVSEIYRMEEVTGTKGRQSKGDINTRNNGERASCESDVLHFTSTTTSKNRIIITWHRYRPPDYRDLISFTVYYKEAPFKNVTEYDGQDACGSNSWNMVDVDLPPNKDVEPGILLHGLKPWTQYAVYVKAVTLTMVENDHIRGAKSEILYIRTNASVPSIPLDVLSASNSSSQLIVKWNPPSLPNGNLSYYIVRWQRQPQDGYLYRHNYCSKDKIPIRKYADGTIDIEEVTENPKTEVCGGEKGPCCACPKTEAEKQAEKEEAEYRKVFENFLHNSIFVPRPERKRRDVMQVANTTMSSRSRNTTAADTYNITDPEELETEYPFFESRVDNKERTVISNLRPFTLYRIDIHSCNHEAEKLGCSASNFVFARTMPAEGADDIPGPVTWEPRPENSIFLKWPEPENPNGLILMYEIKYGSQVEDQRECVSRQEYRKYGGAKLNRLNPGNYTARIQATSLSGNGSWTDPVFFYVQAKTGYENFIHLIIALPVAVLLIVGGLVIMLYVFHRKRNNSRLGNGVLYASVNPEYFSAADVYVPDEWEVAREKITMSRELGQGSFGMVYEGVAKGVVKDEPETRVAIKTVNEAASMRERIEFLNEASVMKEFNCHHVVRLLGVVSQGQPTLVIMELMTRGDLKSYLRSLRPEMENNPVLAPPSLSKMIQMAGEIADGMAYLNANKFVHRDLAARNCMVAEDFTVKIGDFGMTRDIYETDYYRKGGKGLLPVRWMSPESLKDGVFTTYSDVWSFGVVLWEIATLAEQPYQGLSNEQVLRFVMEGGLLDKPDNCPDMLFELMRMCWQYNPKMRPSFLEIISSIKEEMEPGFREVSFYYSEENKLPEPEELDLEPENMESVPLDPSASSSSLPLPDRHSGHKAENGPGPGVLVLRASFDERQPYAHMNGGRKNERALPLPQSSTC

Compound: NC[C@H]1C[C@@H](n2cc(-c3cccc(OCc4ccccc4)c3)c3c(N)ncnc32)C1 [Example 1, cis-7-(3-aminomethyl-cyclobutyl)-5-(3-benzyloxy-phenyl)-7H-pyrrolo[2,3-d]pyrimidin-4-ylamine]
- IC50: 62 nM

Compound: NC[C@H]1C[C@H](n2cc(-c3cccc(OCc4ccccc4)c3)c3c(N)ncnc32)C1 [Example 2, trans-7-(3-aminomethyl-cyclobutyl)-5-(3-benzyloxy-phenyl)-7H-pyrrolo[2,3-d]pyrimidin-4-ylamine]
- IC50: 30 nM

Compound: CNC[C@H]1C[C@@H](n2cc(-c3cccc(OCc4ccccc4)c3)c3c(N)ncnc32)C1 [Example 9, cis-5-(3-Benzyloxy-phenyl)-7-(3-methylaminomethyl-cyclobutyl)-7H-pyrrolo[2,3-d]pyrimidin-4-ylamine]
- IC50: 42 nM

Compound: CNC[C@H]1C[C@H](n2cc(-c3cccc(OCc4ccccc4)c3)c3c(N)ncnc32)C1 [Example 10, trans-5-(3-Benzyloxy-phenyl)-7-(3-methylaminomethyl-cyclobutyl)-7H-pyrrolo[2,3-d]pyrimidin-4-ylamine]
- IC50: 70 nM

Compound: CS(=O)(=O)NC[C@H]1C[C@@H](n2cc(-c3cccc(OCc4ccccc4)c3)c3c(N)ncnc32)C1 [Example 14, cis-N-{3-[4-Amino-5-(3-benzyloxy-phenyl)-pyrrolo[2,3-d]pyrimidin-7-yl]-cyclobutylmethyl}-methanesulfonamide]
- IC50: 30 nM

Compound: COC(=O)NC[C@H]1C[C@H](n2cc(-c3cccc(OCc4ccccc4)c3)c3c(N)ncnc32)C1 [Example 22, trans-{3-[4-amino-5-(3-benzyloxy-phenyl)-pyrrolo[2,3-d]pyrimidin-7-yl]-cyclobutylmethyl}-carbamic acid methyl ester]
- IC50: 80 nM

Compound: COC(=O)NC[C@H]1C[C@@H](n2cc(-c3cccc(OCc4ccccc4)c3)c3c(N)ncnc32)C1 [Example 23, cis-{3-[4-Amino-5-(3-benzyloxy-phenyl)-pyrrolo[2,3-d]pyrimidin-7-yl]-cyclobutylmethyl}-carbamic acid methyl ester]
- IC50: 31 nM

Compound: COCCOC(=O)NC[C@H]1C[C@H](n2cc(-c3cccc(OCc4ccccc4)c3)c3c(N)ncnc32)C1 [Example 24, trans-{3-[4-Amino-5-(3-benzyloxy-phenyl)-pyrrolo[2,3-d]pyrimidin-7-yl]-cyclobutylmethyl}-carbamic acid 2-methoxy-ethyl ester]
- IC50: 95 nM

Compound: CCNC(=O)NC[C@H]1C[C@H](n2cc(-c3cccc(OCc4ccccc4)c3)c3c(N)ncnc32)C1 [Example 26, trans-1-{3-[4-amino-5-(3-benzyloxy-phenyl)-pyrrolo[2,3-d]pyrimidin-7-yl]-cyclobutylmethyl}-3-ethyl-urea]
- IC50: 55 nM

Compound: CCNC(=O)NC[C@H]1C[C@@H](n2cc(-c3cccc(OCc4ccccc4)c3)c3c(N)ncnc32)C1 [Example 27, cis-{3-[4-Amino-5-(3-benzyloxy-phenyl)pyrrolo[2,3-d]pyrimidin-7-yl]-cyclobutylmethyl}-3-ethyl-urea]
- IC50: 50 nM

Compound: CCCNC(=O)NC[C@H]1C[C@H](n2cc(-c3cccc(OCc4ccccc4)c3)c3c(N)ncnc32)C1 [Example 28, trans-1-{3-[4-Amino-5-(3-benzyloxy-phenyl)-pyrrolo[2,3-d]pyrimidin-7-yl]-cyclobutylmethyl}-3-propyl-urea]
- IC50: 50 nM

Compound: CC(C)NC(=O)NC[C@H]1C[C@@H](n2cc(-c3cccc(OCc4ccccc4)c3)c3c(N)ncnc32)C1 [Example 31, cis-1-{3-[4-Amino-5-(3-benzyloxy-phenyl)-pyrrolo[2,3-d]pyrimidin-7-yl]-cyclobutylmethyl}-3-isopropyl-urea]
- IC50: 30 nM

Compound: NC(=O)NC[C@H]1C[C@@H](n2cc(-c3cccc(OCc4ccccc4)c3)c3c(N)ncnc32)C1 [Example 49, cis-{3-[4-Amino-5-(3-benzyloxy-phenyl)-pyrrolo[2,3-d]pyrimidin-7-yl]-cyclobutylmethyl}-urea]
- IC50: 40 nM

Compound: Nc1ncnc2c1c(-c1cccc(OCc3ccccc3)c1)cn2[C@H]1C[C@@H](CNC(=O)CN2CCCCC2)C1 [Example 57, cis-N-{3-[4-Amino-5-(3-benzyloxy-phenyl)-pyrrolo[2,3-d]pyrimidin-7-yl]-cyclobutylmethyl}-2-piperidin-1-yl-acetamide]
- IC50: 18 nM

Compound: NC(=O)[C@@H]1CCCN1C[C@H]1C[C@H](n2cc(-c3cccc(OCc4ccccc4)c3)c3c(N)ncnc32)C1 [Example 75, trans-(S)1-{3-[4-Amino-5-(3-benzyloxy-phenyl)-pyrrolo[2,3-d]pyrimidin-7-yl]-cyclobutylmethyl}-pyrrolidine-2-carboxylic acid amide]
- IC50: 50 nM

Compound: Nc1ncnc2c1c(-c1cccc(OCc3ccccc3)c1)cn2[C@H]1C[C@@H](CN2CCC(O)CC2)C1 [Example 77, cis-1-{3-[4-Amino-5-(3-benzyloxy-phenyl)-pyrrolo[2,3-d]pyrimidin-7-yl]-cyclobutylmethyl}-piperidin-4-ol]
- IC50: 50 nM

Compound: Nc1ncnc2c1c(-c1cccc(OCc3ccccc3)c1)cn2[C@H]1C[C@@H](CN2CCSCC2)C1 [Example 81, cis-5-(3-Benzyloxy-phenyl)-7-(3-thiomorpholin-4-ylmethyl-cyclobutyl)-7H-pyrrolo[2,3-d]pyrimidin-4-ylamine]
- IC50: 80 nM

Compound: NC(=O)[C@H]1CCCN1C[C@H]1C[C@@H](n2cc(-c3cccc(OCc4ccccc4)c3)c3c(N)ncnc32)C1 [Example 83, cis-(R)-1-{3-[4-Amino-5-(3-benzyloxy-phenyl)-pyrrolo[2,3-d]pyrimidin-7-yl]-cyclobutylmethyl}-pyrrolidine-2-carboxylic acid amide]
- IC50: 52 nM

Compound: CNC(=O)NC[C@H]1C[C@@H](n2cc(-c3cccc(OCc4ccccc4)c3)c3c(N)ncnc32)C1 [Example 88, cis-1-{3-[4-Amino-5-(3-benzyloxy-phenyl)-pyrrolo[2,3-d]pyrimidin-7-yl]-cyclobutylmethyl}-3-methyl-urea]
- IC50: 57 nM

Compound: Nc1ncnc2c1c(-c1cccc(OCc3ccccc3)c1)cn2[C@H]1C[C@H](CNC(=O)N2CCCCC2)C1 [Example 90, trans-Piperidine-1-carboxylic acid {3-[4-amino-5-(3-benzyloxy-phenyl)-pyrrolo[2,3-d]pyrimidin-7-yl]-cyclobutylmethyl}-amide]
- IC50: 90 nM

Compound: CCN(CC)CCOC(=O)NC[C@H]1C[C@H](n2cc(-c3cccc(OCc4ccccc4)c3)c3c(N)ncnc32)C1 [Example 95, trans-{3-[4-amino-5-(3-benzyloxy-phenyl)pyrrolo[2,3-d]pyrimidin-7-yl]-cyclobutylmethyl}-carbamic acid 2-diethylamino-ethyl ester]
- IC50: 80 nM

Compound: Nc1ncnc2c1c(-c1cccc(OCc3ccccc3)c1)cn2[C@H]1C[C@H](CNC(=O)OCCN2CCOCC2)C1 [Example 96, trans-{3-[4-Amino-5-(3-benzyloxy-phenyl)-pyrrolo[2,3-d]pyrimidin-7-yl]-cyclobutylmethyl}-carbamic acid 2-morpholin-4-yl-ethyl ester]
- IC50: 50 nM

Compound: CN(C)CCOC(=O)NC[C@H]1C[C@H](n2cc(-c3cccc(OCc4ccccc4)c3)c3c(N)ncnc32)C1 [Example 98, trans-{3-[4-Amino-5-(3-benzyloxy-phenyl)-pyrrolo[2,3-d]pyrimidin-7-yl]-cyclobutylmethyl}-carbamic acid 2-dimethylamino-ethyl ester]
- IC50: 40 nM

Compound: Cc1c(-c2cccc(OCc3ccccc3)c2)c2c(N)ncnc2n1[C@H]1C[C@H](CN2CCC(O)CC2)C1 [Example 109, trans-1-{3-[4-Amino-5-(3-benzyloxy-phenyl)-6-methyl-pyrrolo[2,3-d]pyrimidin-7-yl]-cyclobutylmethyl}-piperidin-4-ol]
- IC50: 150 nM

Compound: Cc1c(-c2cccc(OCc3ccccc3)c2)c2c(N)ncnc2n1[C@H]1C[C@H](CN2CCC2)C1 [Example 110, trans-7-(3-Azetidin-1-ylmethyl-cyclobutyl)-5-(3-benzyloxy-phenyl)-6-methyl-7-H-pyrrolo[2,3-d]pyrimidin-4-ylamine]
- IC50: 140 nM

Compound: Cc1c(-c2cccc(OCc3ccccc3)c2)c2c(N)ncnc2n1[C@H]1C[C@H](CN2CCC[C@@H]2CO)C1 [Example 112, trans-((R)-1-{3-[4-Amino-5-(3-benzyloxy-phenyl)-6-methyl-pyrrolo[2,3-d]pyrimidin-7-yl]-cyclobutylmethyl}-pyrrolidin-2-yl)-methanol]
- IC50: 90 nM

Compound: Cc1c(-c2cccc(OCc3ccccc3)c2)c2c(N)ncnc2n1[C@H]1C[C@@H](CN2CCN(C)CC2)C1 [Example 117, cis-5-(3-Benzyloxy-phenyl)-6-methyl-7-[3-(4-methyl-piperazin-1-ylmethyl)-cyclobutyl]-7H-pyrrolo[2,3-d]pyrimidin-4-ylamine]
- IC50: 130 nM
